# From PMC12430443, “Discovery of Novel Benzamide-Based Sigma-1 Receptor Agonists with Enhanced Selectivity and Safety” (Molecules, 2025)
# Legend:
# Caco-2 cell line = test system: Caco-2 cell line; parameters: method as in PMID 36233193; details: 10 µM, cited from earlier work
# [1] = parameters: method as in PMID 36233193; details: 10 µM; cited from earlier work
# histamine H1 receptor = histamine H1 receptor (Homo sapiens, UniProt P35367); parameters: method as in PMID 11897056; details: 10 µM; cited from earlier work
# [2] = parameters: method as in PMID 36233193; details: 10 µM; cited from earlier work; remark: listed apart in the source
# S1R = biological target: T1, S1R (Homo sapiens, UniProt Q99720); assay: S1R competitive radioligand binding, [3H](+)-pentazocine, Jurkat cell membranes; details: for Ki: [3H](+)-pentazocine, mean of 2–3 independent experiments; for Ki / IC50: Jurkat cell membranes; for IC50: [3H]-(+)-pentazocine displacement, n = 2; for Ki (S2R)/ Ki (S1R): selectivity ratio S2R/S1R
# T1 construct: For the S1R assay, Jurkat cell membranes (10–20 μg protein/tube) were incubated at 37 °C for 2 h; host or cells: Jurkat cell membranes
# T1 sequence (Q99720 whole entry): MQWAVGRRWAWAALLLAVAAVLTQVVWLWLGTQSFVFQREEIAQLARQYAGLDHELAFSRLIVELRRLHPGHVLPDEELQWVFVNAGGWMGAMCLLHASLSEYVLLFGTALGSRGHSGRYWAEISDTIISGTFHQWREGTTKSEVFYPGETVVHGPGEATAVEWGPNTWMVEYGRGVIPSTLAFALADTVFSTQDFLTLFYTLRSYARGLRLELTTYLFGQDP
# From the text: (§1) S1R and S2R affinities were classically evaluated through competitive binding assays using radioligands, following the protocol described by Ganapathy et al.. The selective radioligand [^3H] (+)-pentazocine was employed as the classic prototypical ligand, selectively binding to the orthosteric S1R-binding sites. […] Jurkat cell membranes served as the receptor source in both assays. The equilibrium dissociation constants (Ki) for S1R and S2R were derived from the IC50 values of each compound, and selectivity ratios (S2R/S1R) were subsequently calculated (Table 1, Figures S2 and S3).
# (§2) Binding assays were performed by Eurofins Cerep (Poitiers, France) according to the protocol of Ganapathy. […] For the S2R assay, Jurkat cell membranes (10–20 μg protein/tube) were incubated at room temperature for 1 h in the same buffer with [^3H]-DTG (25 nM) in the presence of (+)-pentazocine (1 μM) to saturate S1R, along with a range of test compound concentrations. Bound radioactivity was quantified by liquid scintillation counting. Nonspecific binding was determined under identical conditions in the presence of 10 μM unlabeled haloperidol. The IC50 values (concentration causing a half-maximal inhibition of control-specific binding) and Hill coefficients (nH) were determined by non-linear regression analysis of the competition curves generated with mean replicate values using Hill equation curve-fitting. This analysis was performed using software developed at Cerep (Hill software) and validated by comparison with data generated by the commercial software SigmaPlot ®4.0 for Windows® (©1997 by SPSS Inc.). Inhibition constants (Ki) were calculated from IC50 values using the method of Cheng and Prusoff.
# hERG channel = biological target: T2, hERG channel (Homo sapiens, UniProt Q12809); parameters: method as in PMID 36233193; details: ratio; cited from earlier work
# T2 construct: host or cells: CHO-K1
# CYP3A = test system: CYP3A; parameters: method as in PMID 36233193; details: at 10 µM; cited from earlier work
# MRP2 = MRP2 (Homo sapiens, UniProt Q92887); parameters: method as in PMID 36233193; details: at 10 µM; ABC family; cited from earlier work
# Chain of MRP2 (Q92887 whole entry): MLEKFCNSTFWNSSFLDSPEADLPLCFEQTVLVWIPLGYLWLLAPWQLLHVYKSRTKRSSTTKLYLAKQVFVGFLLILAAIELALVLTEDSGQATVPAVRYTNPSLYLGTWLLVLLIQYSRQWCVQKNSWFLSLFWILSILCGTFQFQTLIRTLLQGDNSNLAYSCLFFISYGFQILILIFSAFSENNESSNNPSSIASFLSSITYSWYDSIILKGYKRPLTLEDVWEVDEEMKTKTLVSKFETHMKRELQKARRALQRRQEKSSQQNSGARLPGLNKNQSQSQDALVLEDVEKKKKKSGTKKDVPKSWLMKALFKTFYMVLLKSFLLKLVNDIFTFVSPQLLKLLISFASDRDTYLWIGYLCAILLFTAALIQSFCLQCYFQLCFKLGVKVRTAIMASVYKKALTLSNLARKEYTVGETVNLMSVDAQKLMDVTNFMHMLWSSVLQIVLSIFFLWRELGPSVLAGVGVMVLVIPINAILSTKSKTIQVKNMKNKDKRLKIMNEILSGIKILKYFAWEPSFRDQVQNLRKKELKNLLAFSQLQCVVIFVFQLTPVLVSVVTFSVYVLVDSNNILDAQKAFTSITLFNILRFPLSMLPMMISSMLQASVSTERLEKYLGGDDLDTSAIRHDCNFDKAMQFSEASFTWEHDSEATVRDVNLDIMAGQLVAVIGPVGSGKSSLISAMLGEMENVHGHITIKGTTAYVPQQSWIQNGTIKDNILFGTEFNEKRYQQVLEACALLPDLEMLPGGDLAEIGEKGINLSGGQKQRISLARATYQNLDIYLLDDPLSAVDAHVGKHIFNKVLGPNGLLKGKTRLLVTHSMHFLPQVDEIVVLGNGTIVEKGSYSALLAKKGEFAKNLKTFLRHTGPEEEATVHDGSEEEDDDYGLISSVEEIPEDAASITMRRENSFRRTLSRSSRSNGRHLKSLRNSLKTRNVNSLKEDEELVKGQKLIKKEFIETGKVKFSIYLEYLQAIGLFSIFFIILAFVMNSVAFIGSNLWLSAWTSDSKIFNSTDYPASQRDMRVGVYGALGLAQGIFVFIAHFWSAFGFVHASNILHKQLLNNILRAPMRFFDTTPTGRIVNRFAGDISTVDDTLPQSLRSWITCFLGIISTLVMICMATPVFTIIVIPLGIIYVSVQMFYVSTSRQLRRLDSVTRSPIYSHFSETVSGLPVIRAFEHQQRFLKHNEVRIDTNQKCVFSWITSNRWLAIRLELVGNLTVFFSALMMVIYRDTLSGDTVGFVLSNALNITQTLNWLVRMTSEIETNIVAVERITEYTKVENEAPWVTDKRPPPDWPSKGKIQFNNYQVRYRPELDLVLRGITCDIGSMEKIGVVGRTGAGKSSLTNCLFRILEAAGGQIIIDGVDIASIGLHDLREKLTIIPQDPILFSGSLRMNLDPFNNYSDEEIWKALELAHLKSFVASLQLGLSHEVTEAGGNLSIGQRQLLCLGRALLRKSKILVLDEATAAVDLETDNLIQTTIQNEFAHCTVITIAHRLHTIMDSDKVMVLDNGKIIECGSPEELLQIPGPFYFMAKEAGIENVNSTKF
# muscarinic M1 receptor = muscarinic M1 receptor (Homo sapiens, UniProt P11229); parameters: method as in PMID 11897056; details: 10 µM; cited from earlier work
# Chain of muscarinic M1 receptor (P11229 whole entry): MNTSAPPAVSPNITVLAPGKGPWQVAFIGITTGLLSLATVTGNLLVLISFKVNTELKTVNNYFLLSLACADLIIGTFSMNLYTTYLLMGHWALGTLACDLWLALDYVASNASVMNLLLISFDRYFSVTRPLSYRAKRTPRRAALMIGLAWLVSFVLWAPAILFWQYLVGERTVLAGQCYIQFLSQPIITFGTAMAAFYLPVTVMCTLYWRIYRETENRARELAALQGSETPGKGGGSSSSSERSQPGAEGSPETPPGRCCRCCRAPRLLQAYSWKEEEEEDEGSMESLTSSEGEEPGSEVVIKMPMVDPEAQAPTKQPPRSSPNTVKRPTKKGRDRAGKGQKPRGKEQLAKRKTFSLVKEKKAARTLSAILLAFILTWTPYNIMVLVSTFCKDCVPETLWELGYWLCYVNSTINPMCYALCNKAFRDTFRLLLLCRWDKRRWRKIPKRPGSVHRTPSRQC
# [3] = parameters: method as in PMID 36233193; details: cited from earlier work
# S2R = biological target: T3, S2R (Homo sapiens, UniProt Q5BJF2); assay: S2R competitive radioligand binding, [3H]-DTG with excess (+)-pentazocine, Jurkat cell membranes; details: for IC50: [3H]-DTG displacement with excess (+)-pentazocine, n = 2; for Ki: [3H]-DTG with (+)-pentazocine, mean of 2–3 independent experiments
# T3 construct: For the S2R assay, Jurkat cell membranes (10–20 μg protein/tube) were incubated at room temperature for 1 h; host or cells: Jurkat cell membranes
# T3 sequence (Q5BJF2 whole entry): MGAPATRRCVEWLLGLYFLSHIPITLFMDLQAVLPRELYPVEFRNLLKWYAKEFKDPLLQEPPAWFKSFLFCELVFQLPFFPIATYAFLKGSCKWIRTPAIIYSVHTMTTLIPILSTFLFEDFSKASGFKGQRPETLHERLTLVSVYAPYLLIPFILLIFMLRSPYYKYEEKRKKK
# From the text: as §1, §2
# CYP2C19 = biological target: T4, CYP2C19 (Homo sapiens, UniProt P33261); parameters: method as in PMID 36233193; details: at 10 µM; cited from earlier work
# T4 construct: tissue Eurofins Cerep (assay provider); host or cells: human liver microsomes
# CYP1A = test system: CYP1A; parameters: method as in PMID 36233193; details: at 10 µM; cited from earlier work
# [4] = Cytotoxicity, MTT/MTS assay; format: cell-based, human; details: human, SH-SY5Y neuroblastoma cells; percentage of cell death after 24 h treatment at 100 µM (duplicate); read-out: SY5Y % Cytotox
# Description: (§3) To assess potential cytotoxicity in CNS-relevant cells, human neuroblastoma (SH-SY5Y) cells were exposed to compounds 2–7 at concentrations up to 100 μM. Cell viability was measured using the MTT assay.
# (§4) Cytotoxicity was assessed in human SH-SY5Y neuroblastoma cells cultured in Dulbecco’s Modified Eagle Medium (DMEM, Gibco, Thermo Fisher Scientific Inc., Waltham, MA, USA) supplemented with 2 mM L-glutamine, 100 μg/mL streptomycin, 100 IU/mL penicillin, 1 mM non-essential amino acids (all from Invitrogen, Thermo Fisher Scientific Inc., Waltham, MA, USA), and 10% (v/v) heat-inactivated fetal bovine serum (Sigma-Aldrich, Burlington, MA, USA). Cells were maintained at 37 °C in a humidified 5% CO2 atmosphere and serum-starved for 24 h to synchronize cultures before treatment with the test compounds at final concentrations of 100, 50, 10, 5, 1, 0.5, 0.1, or 0.05 μM (all in <0.1% DMSO). […] Absorbance was measured at 490 nm, and the results were expressed as a percentage relative to untreated control cells (set at 100%).
# [5] = test system: SH-SY5Y neuroblastoma cells; assay: Cytotoxicity, MTT/MTS assay; format: cell-based, human; details: for IC50 (SY5Y)/ Ki (S1R): selectivity index, IC50 was considered > 100 µM
# Description: as §3, §4
# S1R-BiP complex = biological target: T5, S1R-BiP complex (Cricetulus griseus, UniProt A0A3L7I3A5); assay: S1R-BiP complex dissociation, co-immunoprecipitation and BiP ELISA in CHO cells; format: cell-based; details: for S1R-BiP complex levels: 10 µM
# T5 construct: host or cells: CHO cells
# T5 sequence (A0A3L7I3A5 1-223, one chain of several): as the sequence (Q99720 whole entry) above, with A4S, V5L, A12I, L15F, V25A, S34N, R39Q counted along it
# Description: The interaction between S1R and BiP provides a reliable assay to identify S1R ligands by monitoring the dynamics of the S1R-BiP complex. In this assay, the known S1R agonist PRE-084 and antagonist NE-100 were used as controls (Figure 3).
# The ability of the compounds to promote dissociation of the S1R–BiP complex was assessed by Amylgen (Montferrier-sur-Lez, France) as described in [22, 23]. CHO cells were treated with the test compounds for 30 min at 37 °C, followed by crosslinking with dithiobis(succinimidyl propionate) (DSP; Thermo Scientific, Waltham, MA, USA). Cells were lysed after 15 min on ice, and the lysates were centrifuged. Supernatants were incubated overnight at 4 °C with an anti-S1R antibody (Abcam, Cambridge, UK), and then with Protein A-Sepharose (Invitrogen). After the first centrifugation, pellets were resuspended in radioimmunoprecipitation assay (RIPA) buffer, centrifuged again, and resuspended in 2× sample buffer/bMCE buffer. Following a third centrifugation, the supernatants were analyzed for BiP immunoreactivity using an ELISA kit (SEC343Mu, USCNK Life Sciences, Wuhan, China).
# Figure 3 In vitro evaluation of agonist activity of compounds 2, 3, and 6: The effects of compounds 2, 3, and 6 at 1 and 10 µM on the S1R-BiP association after 30 min of incubation were analyzed by co-immunoprecipitation using an anti-S1R antibody (red). BiP levels were quantified by ELISA. PRE-084 (white) and NE-100 (black) served as the reference agonist and antagonist, respectively (10 µM). Agonist activity was confirmed by its blockade with NE-100 (black hatching). […] Data represent the mean ± SEM from n = 6 per condition. Statistical significance was assessed using Dunnett’s test: *** p < 0.0001, * p < 0.05 vs. untreated control; ### p < 0.0001, # p < 0.05 for NE-100 blockade.
# CXCR1 = CXCR1 (Homo sapiens, UniProt P25024); assay: Off-target panel of recombinant human receptors; format: cell-based; details: 10 µM, duplicate; % inhibition of reference agonist activity
# Chain of CXCR1 (P25024 whole entry): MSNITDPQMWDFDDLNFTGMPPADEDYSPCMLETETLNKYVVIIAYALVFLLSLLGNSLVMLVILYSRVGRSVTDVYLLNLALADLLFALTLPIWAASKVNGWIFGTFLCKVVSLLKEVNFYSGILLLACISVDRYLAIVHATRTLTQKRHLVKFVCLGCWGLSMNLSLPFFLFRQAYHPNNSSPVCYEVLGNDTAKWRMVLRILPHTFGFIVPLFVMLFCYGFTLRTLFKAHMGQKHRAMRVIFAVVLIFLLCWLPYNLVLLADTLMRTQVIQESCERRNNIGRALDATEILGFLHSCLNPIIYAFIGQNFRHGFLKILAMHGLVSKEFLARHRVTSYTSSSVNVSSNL
# Description: (§5) Among the synthesized compounds, four derivatives were selected based on their affinity and selectivity profiles. […] The remaining compounds (2, 3, 6, and 7) were assessed for their agonist and antagonist activities across a panel of 58 receptors relevant to CNS disorders, including serotonin, adenosine, adrenergic, cannabinoid, dopamine, histamine, and muscarinic receptors. These assays were conducted at a concentration of 10 µM, in duplicate, utilizing aequorin [19], cAMP HTRF™ [20], and GTPγS binding assays, as detailed in Table 2. […] Specifically, compound 6 antagonized four receptors (5-HT2A, 5-HT2C, α1a, H1), while compound 7 was active against five receptors (5-HT2A, 5-HT3, α1a, H1, M1).
# (§6) Agonist and antagonist activities of the test compound are expressed as the percentage of the activity of the reference agonist at its EC100 concentration or the percentage of inhibition of the reference agonist activity at its EC80 concentration, respectively.
# D4.4 = D4.4 (Homo sapiens, UniProt P21917); assay: Off-target panel of recombinant human receptors; format: cell-based; details: 10 µM, duplicate; % inhibition of reference agonist activity
# Description: as §5, §6
# [6] = biological target: serotonin 5-HT2C receptor (Homo sapiens, UniProt P28335); assay: Off-target panel, aequorin functional assay; format: cell-based; details: 10 µM, duplicate; % inhibition of reference agonist activity
# Chain of serotonin 5-HT2C receptor (P28335 33-458): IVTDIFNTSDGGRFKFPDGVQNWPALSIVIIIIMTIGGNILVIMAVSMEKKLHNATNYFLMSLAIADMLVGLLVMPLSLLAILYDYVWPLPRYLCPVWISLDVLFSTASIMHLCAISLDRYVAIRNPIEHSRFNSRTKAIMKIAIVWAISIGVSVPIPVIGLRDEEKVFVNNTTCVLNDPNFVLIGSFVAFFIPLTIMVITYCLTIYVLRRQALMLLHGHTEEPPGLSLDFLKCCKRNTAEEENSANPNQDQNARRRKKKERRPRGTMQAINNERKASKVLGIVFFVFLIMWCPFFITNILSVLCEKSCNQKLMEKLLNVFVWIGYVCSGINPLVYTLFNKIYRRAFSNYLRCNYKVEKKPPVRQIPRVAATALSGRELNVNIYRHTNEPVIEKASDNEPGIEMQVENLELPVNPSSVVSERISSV
# Description: as §5
# (§7) Rapidly, the tests were performed by Euroscreen (https://euroscreenfast.com/) with recombinant human G-coupled receptor-expressing cell lines using aequorin functional assays for serotonin 5-HT2A, 5-HT2B, 5-HT2C, 5-HT3, and 5-HT5A, adrenergic α1a and α1b, angiotensin AT1, cholesistokinin CCFK1, endothelin ETA, histamine H1, muscarinic M1 and M3, neurokinin NK1 and NK2, vasopressin V1a, and vasoactive intestinal peptide VPAC1 receptor analysis. Then, cAMP HTRF^TM assays were used to analyze serotonin 5-HT1A, 5-HT4E, 5-HT6, and 5-HT7, adenosine A1, A2A, and A3, adrenergic β1 and β2, cannabinoid CB1, dopamine D1, histamine H2, and neuropeptide Y NPY receptors. GTPγS^35 assays were used to analyze serotonin 5-HT1B, adrenergic α2a and α2b, dopamine D2, muscarinic M2 and M4, opioid δ, κ and µ, and somatostatine SST4 receptors.
# as §6
# (§8) For the aequorin assays, different cell lines co-expressing the receptors were grown in specific culture media and incubated for 4 h with coelenterazine h. For agonist testing, cell suspensions were mixed with test or reference agonists in a 96-well plate. For antagonist testing, the reference agonist at its EC80 (final concentration) was injected to the mix the containing cells and the tested compound. The resulting emission of light was recorded using the Hamamatsu Functional Drug Screening System 6000 [19].
# adrenergic α1b receptor = adrenergic α1b receptor (Homo sapiens, UniProt P35368); assay: Off-target panel, aequorin functional assay; format: cell-based; details: 10 µM, duplicate; % inhibition of reference agonist activity
# Chain of adrenergic α1b receptor (P35368 whole entry): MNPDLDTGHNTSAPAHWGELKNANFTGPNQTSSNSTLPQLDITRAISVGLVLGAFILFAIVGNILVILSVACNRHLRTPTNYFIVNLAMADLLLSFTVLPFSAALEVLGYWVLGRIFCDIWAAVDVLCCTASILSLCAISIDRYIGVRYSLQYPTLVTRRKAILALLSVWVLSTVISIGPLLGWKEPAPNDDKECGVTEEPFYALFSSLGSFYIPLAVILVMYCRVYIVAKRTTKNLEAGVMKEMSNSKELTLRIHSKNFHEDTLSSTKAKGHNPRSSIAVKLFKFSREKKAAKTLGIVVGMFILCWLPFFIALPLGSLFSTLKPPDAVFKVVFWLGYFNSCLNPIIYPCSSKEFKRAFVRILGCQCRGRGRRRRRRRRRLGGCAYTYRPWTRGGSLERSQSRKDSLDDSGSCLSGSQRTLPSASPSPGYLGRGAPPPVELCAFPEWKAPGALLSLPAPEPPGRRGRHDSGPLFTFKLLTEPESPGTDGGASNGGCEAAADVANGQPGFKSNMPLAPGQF
# Description: as §5, §7, §6, §8
# serotonin 5-HT3 receptor = serotonin 5-HT3 receptor (Homo sapiens, UniProt P46098); assay: Off-target panel, aequorin functional assay; format: cell-based; details: 10 µM, duplicate; % inhibition of reference agonist activity
# Chain of serotonin 5-HT3 receptor (P46098 24-478): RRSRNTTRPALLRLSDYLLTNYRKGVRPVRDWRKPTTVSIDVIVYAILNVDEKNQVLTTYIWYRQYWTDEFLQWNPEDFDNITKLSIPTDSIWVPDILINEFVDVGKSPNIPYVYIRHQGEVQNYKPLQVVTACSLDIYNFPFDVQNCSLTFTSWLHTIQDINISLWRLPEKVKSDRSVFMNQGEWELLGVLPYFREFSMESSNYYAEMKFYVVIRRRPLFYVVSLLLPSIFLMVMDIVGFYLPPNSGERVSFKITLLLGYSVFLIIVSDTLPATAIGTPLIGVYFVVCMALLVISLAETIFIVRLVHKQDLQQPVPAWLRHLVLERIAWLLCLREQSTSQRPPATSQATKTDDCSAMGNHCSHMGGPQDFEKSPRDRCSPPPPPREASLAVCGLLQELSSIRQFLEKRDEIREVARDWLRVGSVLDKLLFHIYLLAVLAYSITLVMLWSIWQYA
# Description: as §5, §7, §6, §8
# adrenergic α1a receptor = adrenergic α1a receptor (Homo sapiens, UniProt P35348); assay: Off-target panel, aequorin functional assay; format: cell-based; details: 10 µM, duplicate; % inhibition of reference agonist activity
# Chain of adrenergic α1a receptor (P35348 whole entry): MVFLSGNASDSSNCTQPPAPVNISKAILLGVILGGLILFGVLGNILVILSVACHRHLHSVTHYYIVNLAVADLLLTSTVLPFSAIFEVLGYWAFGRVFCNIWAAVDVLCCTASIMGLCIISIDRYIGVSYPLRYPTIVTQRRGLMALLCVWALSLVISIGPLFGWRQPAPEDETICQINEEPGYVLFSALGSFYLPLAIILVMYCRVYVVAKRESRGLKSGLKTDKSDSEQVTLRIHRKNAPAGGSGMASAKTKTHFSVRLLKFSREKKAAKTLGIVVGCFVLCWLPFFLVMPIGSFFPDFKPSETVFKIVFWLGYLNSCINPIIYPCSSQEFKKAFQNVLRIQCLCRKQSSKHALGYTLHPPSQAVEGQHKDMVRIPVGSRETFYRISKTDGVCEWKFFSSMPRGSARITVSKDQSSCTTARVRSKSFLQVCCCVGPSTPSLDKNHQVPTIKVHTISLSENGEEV
# Description: as §5, §7, §6, §8
compound,measurement,setting,value
CN(CCCNC(=O)c1ccc(Cl)cc1)Cc1ccccc1 [Compound 1],Permeability A/B pH7.4/7.4,Caco-2 cell line; Caco-2,29.1 ×10^−6 cm/s
same,Permeability B/A pH7.4/7.4,Caco-2 cell line; Caco-2,66.1 ×10^−6 cm/s
same,e-ratio,Caco-2 cell line; efflux ratio Papp(B→A)/Papp(A→B),2.3
same,Human liver microsome half-life t1/2,[1],>1 h
same,H1 activity (in words),histamine H1 receptor,no activity
same,Plasma protein binding,[2],94%
same,Ki,S1R,3.2 nM
same,IC50,S1R,6.3 nM
same,IC50 (hERG)/Ki (σ1),hERG channel,312
same,CYP inhibition 3A,CYP3A,36.9%
same,Drug transport inhibition MRP2,MRP2,−18.6%
same,M1 antagonist activity (in words),muscarinic M1 receptor,antagonist activity
same,Mouse plasma t1/2,[3],25.9 h
same,IC50,S2R,255 nM
same,Ki,S2R,190 nM
same,CYP inhibition 2C19,CYP2C19,36.2%
same,CYP inhibition 1A,CYP1A,2.1%
same,"cytotoxicity at 24 h, 100 µM",[4],28%
same,IC50 (SY5Y)/ Ki (S1R),[5],">31,250"
"CN(CCC(=O)NCc1ccc(Cl)cc1)Cc1ccccc1 [Compound 3, 3-(Benzylmethylamino)-N-(4-chlorobenzyl)propanamide]",Dissociation of the S1R-BiP complex (in words),"S1R-BiP complex; 1 and 10 µM, 30 min incubation, CHO cells, n = 6","significant, dose-dependent dissociation"
same,Dissociation of S1R-BiP complex in the presence of NE-100 (in words),S1R-BiP complex; co-treatment with NE-100 (10 µM),completely inhibited
same,IC50,S1R,3.3 nM
same,Ki (S2R)/ Ki (S1R),S1R,241
same,CXCR1 [b] antagonist activity,CXCR1,54%
same,D4.4 [b] antagonist activity,D4.4,84%
same,IC50,S2R,540 nM
same,"cytotoxicity at 24 h, 100 µM",[4],1%
same,IC50 (SY5Y)/ Ki (S1R),[5],">58,823"
same,5-HT2C [b] antagonist activity,[6],76%
same,α1b [b] antagonist activity,adrenergic α1b receptor,65%
same,5-HT3 [b] antagonist activity,serotonin 5-HT3 receptor,72%
same,α1a [b] antagonist activity,adrenergic α1a receptor,88%
"CN(CCC(=O)NCc1ccc([N+](=O)[O-])cc1)Cc1ccccc1 [Compound 7, 3-(Benzylmethylamino)-N-(4-Nitrobenzyl)propanamide]",Ki,S1R,110 nM
same,IC50,S1R,220 nM
same,Ki (S2R)/ Ki (S1R),S1R,59
same,IC50,S2R,8600 nM
same,"cytotoxicity at 24 h, 100 µM",[4],9%
same,IC50 (SY5Y)/ Ki (S1R),[5],>909
"CCCN(CCC)CCc1ccc(OC)c(OCCc2ccccc2)c1 [NE-100, reference compound]",S1R-BiP complex levels,"S1R-BiP complex; 30 min incubation, CHO cells",90–100 % of the control
"O=C(OCCN1CCOCC1)C1(c2ccccc2)CCCCC1 [PRE-084, reference compound]",S1R-BiP complex levels,"S1R-BiP complex; 30 min incubation, CHO cells",less than 50 % of the control
3-(Benzylmethylamino)-N-(3-bromobenzyl)propanamide [Compound 4],Ki,S1R,> 200 nM
same,Ki,S2R,> 200 nM
same,SY5Y % Cytotox,[5]; 100 µM,6%
"CN(CCC(=O)NCc1ccc(Cl)cc1Cl)Cc1ccccc1 [Compound 5, 3-(Benzylmethylamino)-N-(2,4-Dichlorobenzyl)propanamide]",IC50,S1R,4.5 nM
same,Ki (S2R)/ Ki (S1R),S1R,52
same,IC50,S2R,160 nM
same,"cytotoxicity at 24 h, 100 µM",[4],37%
same,IC50 (SY5Y)/ Ki (S1R),[5],">43,478"
